In US12139470B2, “Trioxolane agents” (The Regents of the University of California, priority 2017, dated 2024):
≈ marks a conversion by molar mass, not a printed value. Like-named read-outs stand apart in the source and are kept apart here.

What was measured:
[1] = Dissolution in oral gavage formulation; type: physicochemical; conditions: 10% DMSO, 40% of a 20% solution of 2-hydroxypropyl-cyclodextrin in water, 50% PEG400; 80, 40 and 30 mg/kg doses; sonication
Method: As such, we chose to screen the two regioisomers in a head-to-head study against P. berghei infected mice. In order to carry out this experiment, both compounds first needed to be formulated in a manner that would allow for treatment of the mice by oral gavage. […] Returning to the 3′ regioisomer, the actual doses were then successfully prepared according to the following instructions. The necessary amount of DMSO solution was removed from the vial and added to a new vial. For the 80 mg/kg dose, no additional DMSO was needed to be added to the vial. […] Upon adding the aqueous portion to the 80, 40, and 30 mg/kg doses, a white solution formed (resembled more of an emulsion then a heterogeneous solution). The vials were then placed in a bath sonicator in an attempt to redissolve the material. […] However, even after storing the material at −20° C., the compound was not observed to crash out of the formulation again. For the second attempt at preparing the necessary formulation for the actual OZ439, the material was partitioned such that when the dilutions were performed, the highest concentration that would be prepared from the stock solution would be the 10 mg/kg doses. As such, the 80, 40, and 30 mg/kg doses were all prepared directly by partitioning the requisite amounts into separate vials and then adding the necessary amounts of the formulation to reach the desired concentration. […]

[2] = system: Plasmodium falciparum: strain W2; assay: Plasmodium falciparum growth inhibition assay (EC50 determinations); type: cell-based; conditions: Plasmodium falciparum, W2; against P. falciparum, in vitro; read-out: potency against P. falciparum
Method: The growth inhibition assay for P. falciparum was conducted as described previously^29 with minor modifications. […] Following 48 hours of incubation, the cells were fixed by adding 0.1 ml of 2% formaldehyde in phosphate buffered saline, pH=7.4 (PBS). […] Parasitemias were determined from dot plots (forward scatter vs. fluorescence) using [sequence] software (Becton Dickinson). EC50 values for growth inhibition were determined from plots of percentage control parasitemia over inhibitor concentration using GraphPad Prism software.

[3] = Dissolution in DMSO (stock solution); type: physicochemical
Method: The way in which the formulations were prepared involved preparing a stock solution of the compound in DMSO, and then performing dilutions from this stock such that the requisite final concentration was obtained after the addition of all the necessary formulation components. Practically speaking, this was accomplished by partitioning a portion of each compound into separate 4 mL vials, and then placing these vials on the lyophilizer to ensure the compounds were completely dry. This led to a vial containing 49.5 mg of the 3′ OZ439 regioisomer, while the other held 51.0 mg of OZ439. […] This entailed adding 309.4 μL of DMSO to the vial with the 3′ OZ439 regioisomer, whereas 318.8 μL of DMSO was added to the vial containing actual OZ439. In the past, an issue has not arisen when doing this. However, this time, a major problem presented itself. The problem was not with the newly developed 3′ regioisomer of OZ439, but with OZ439 itself. After addition of DMSO to the vials, the majority of the 3′ regioisomer dissolved, whereas none of the actual OZ439 did. In an attempt to assist with dissolving the material, the two vials were then placed a water bath set to 42° C. […] The vial was then placed in a bath sonicator for 60 minutes, ultimately to no avail as […] dissolution of the material. […] At this point, the vial was then placed on the Hi-Vac to remove the DMSO. Once dry, the material was partitioned again in an attempt to get the material to dissolve at a lower concentration.
For the second attempt at preparing the necessary formulation for the actual OZ439, the material was partitioned such that when the dilutions were performed, the highest concentration that would be prepared from the stock solution would be the 10 mg/kg doses. As such, the 80, 40, and 30 mg/kg doses were all prepared directly by partitioning the requisite amounts into separate vials and then adding the necessary amounts of the formulation to reach the desired concentration. For the vial that was employed in aliquoting from to prepare the other concentrations, it contained 15.5 mg of OZ439. DMSO (775 μL) was then added to this vial, to yield a final concentration of 20 mg/mL (55 mM). […] Only after allowing the vial to warm in a 55° C. water bath for 30 minutes did the material finally dissolve. At this point, the material was brought back to the bench to aliquot the material en route to preparing the remaining doses. However, upon being removed from the bath, the compound began to crash out as it cooled to room temperature. For this reason, the vial was heated with a heat gun for about 10-15 seconds to get the material to dissolve fully once again. […]

[4] = system: K13 revertant strain bearing the wild type K13 allele; conditions: pulsed exposure; cited from earlier work
[5] = system: clinical K13-mutant strain; conditions: pulsed exposure; cited from earlier work
[6] = Kinetic solubility in PBS; type: physicochemical; conditions: kinetic solubility in PBS (pH = 7.4), final DMSO 5%, average of three determinations
[7] = human, in vivo; cited from earlier work
[8] = Mouse liver microsome assay (half-life, intrinsic clearance)
Excerpt: A second hypothesis regarding trans-R^A substitution (R^A in Scheme 1) was that the resulting de-symmetrized molecular topology would impact the vivo PK/PD properties of these analogs. […] To explore possible metabolic differences, we evaluated selected analogs with mouse liver microsomes and derived intrinsic clearance (CLint) values (Table 1).

Plasmodium berghei = Plasmodium berghei mouse malaria model (Peters test, cures at 30 days); type: in vivo; conditions: po, 720 h, oral gavage, read-out: Mice Cured (%)
Excerpt: The suppressive 4-day “Peters test” ^27 involving P. berghei infected mice provides a convenient and cost effective means to assess the overall in vivo performance of pre-clinical antimalarials. […] Mice were followed for 30 days and judged to have been cured of the infection based on the lack of detectable parasitemia at the end of the study.
Female Swiss Webster Mice (average of 20 g body weight) were infected intraperitoneally with 10^6 Plasmodium berghei-infected erythrocytes collected from a previously infected mouse. […] There were five mice in each test arm. Infections were monitored by daily microscopic evaluation of Giemsa-stained blood smears starting on day seven. Parasitemia were determined by counting the number of infected and uninfected erythrocytes. Body weight was measured over the course of the treatment. […] Animal survival and morbidity were closely monitored for up to 30 days post-infection when the experiment was terminated. In some cases survival is expressed as a PD100 or PD50, the dose that produces respectively 100% or 50% cures in treated animals at 30 days post infection.

PC-3 xenograft = assay: PET imaging of PC-3 xenograft mouse; type: in vivo; conditions: tail vein injection
Excerpt: Compounds 1 and specific examples B9[^18F] and B20[^18F] above are PET imaging reagent with applications in cancer, infectious disease, and inflammation. […] Additional, more quantitative, biodistribution data (e.g., biodistribution data for probes B9 and B20) is included in FIGS. 5-8. […] The imaging reagents above provides a new paradigm for imaging diverse cancer types based on metabolic changes in iron metabolism in tumors and other aspects of tumor biology (hypoxia, necrosis, macrophage infiltration). Imaging primary tumors and metastases and other therapeutic conditions involving aberrant production of labile Fe(II) such as inflammation and infection.

[9] = 160 mg/mL (341 mM) in DMSO, water bath 42° C., then 55° C. and sonication for OZ439

Which dissolution in formulation [1] does the source give for `c1cc([C@@H]2CCC[C@]3(C2)OOC2(O3)C3CC4CC(C3)CC2C4)ccc1OCCN1CCOCC1` (stereo in doubt) [A5, 4-(2-(4-(dispiro[adamantane-2,3′-[1,2,4]trioxolane-5′,1″-cyclohexan]-3″-yl)phenoxy)ethyl)morpholine] here?
The dissolution in formulation was “completely dissolved”.

What about the EC50 [2] of the same compound?
Its EC50 is 19.5 ± 1.6 nM.

And the “dissolution in DMSO” value [3, 9]?
Its value is “dissolved much more rapidly in DMSO than did OZ439”.

And the “dissolution in DMSO” value ([3]; 160 mg/mL (341 mM) in DMSO, water bath 42° C., then 55° C. and sonication for OZ439, listed as 3′ regioisomer of OZ439)?
Its value is “completely dissolved”.

What does the source list for `CC(C)(N)CNC(=O)C[C@H]1CC[C@]2(CC1)OO[C@]1(O2)C2CC3CC(C2)CC1C3` [2a, arterolane, reference compound]?
time to reduce early ring viability by 50% (t50) [4]: ~1 h; time to reduce early ring viability by 50% (t50) [5]: ~3 h; Solubility [6]: 433 µM (≈ 170 µg/mL); half-life [7]: 2 to 3 h; T1/2 ([8]; half-life when incubated with mouse liver microsomes): 2.13 h; T1/2 (min) No NADPH ([8]; mouse liver microsomes, no NADPH): stable; CLint ([8]; mouse, microsomes): 5.4 μL/min/mg of protein; responders at 13.6 mg/kg/day (Plasmodium berghei; Table 2, tosylate salt, 13.6 mg/kg/day, once a day for four days, no parasitemia at 30 days): 100%; responders at 1 mg/kg/day (Plasmodium berghei; Table 3, free base, 1 mg/kg/day, four daily doses): 0%; responders at 4 mg/kg/day (Plasmodium berghei; Table 3, free base, 4 mg/kg/day, four daily doses): 80%; responders at 6 mg/kg/day (Plasmodium berghei; Table 3, free base, 6 mg/kg/day, four daily doses): 100%; responders at 10 mg/kg/day (Plasmodium berghei; Table 3, free base, 10 mg/kg/day, four daily doses): 100%; responders at 4 mg/kg/day (Plasmodium berghei; Table 4, 4 mg/kg/day, once a day for four days): 20%; responders at 6 mg/kg/day (Plasmodium berghei; Table 4, 6 mg/kg/day, once a day for four days): 80%

Which PET distribution (PC-3 xenograft) does the source give for `O=C(NCCCNC(=O)C12CC3CC(C1)[C@]1(OO[C@]4(CC[C@@H](c5ccc(OCCN6CCOCC6)cc5)CC4)O1)C(C3)C2)c1ccc(F)cc1` [B9, N-(3-(4-fluorobenzamido)propyl)-4″-(4-(2-morpholinoethoxy)phenyl)dispiro[adamantane-2,3′-[1,2,4]trioxolane-5′,1″-cyclohexane]-5-carboxamide] here?
The PET distribution was “accumulation in the small intestine”.

With `c1cc([C@H]2CC[C@]3(CC2)OO[C@]2(O3)C3CC4CC(C3)CC2C4)ccc1OCCN1CCOCC1` [OZ439, artefenomel, reference compound] as the compound, how does the dissolution in formulation [1] read?
Its dissolution in formulation is “unsuccessful in getting the material to dissolve”.

And the EC50 [2]?
Its EC50 is 7.9 ± 0.2 nM.

And the “dissolution in DMSO” value ([3]; 20 mg/mL (55 mM) in DMSO)?
Its value is “did not readily dissolve”.

And the “dissolution in DMSO” value [3, 9]?
The value was “did not dissolve”.
